{
  "source": "patent US10548911B2",
  "about": "“Small molecule anti-scarring agents” (UNIVERSITY OF ROCHESTER, priority 2014, dated 2020)",
  "type_in_all_cases": "cell-based",
  "key": {"[1]": {"system": "TGFβ-induced myofibroblast formation in human fibroblasts", "assay": "Western blot of myofibroblast markers αSMA and calponin in TGFβ-treated human (TED orbital) fibroblasts", "details": "for expression of αSMA and calponin: TGFβ; for expression of αSMA and calponin, dose dependence: 10-250 nM", "method": "TED fibroblasts were treated with TGFβ (1 ng/ml) in the presence or absence of 10-250 nM salinomycin for 72 hours to allow formation of myofibroblasts. After 72 hours, cells were harvested and analyzed by Western blot. As expected, the fibroblasts robustly responded to TGFβ, expressing high levels of αSMA and calponin (FIG. 2A). […] At 50 nM salinomycin, expression of αSMA was reduced by 4-fold over TGFβ treatment alone. Furthermore, at 250 nM salinomycin, αSMA expression was reduced by approximately 16-fold, to levels at or below untreated fibroblasts. […] Another key role of myofibroblasts in scar formation is the production of collagen. Whether salinomycin could block myofibroblast collagen production was assessed. Cells were treated with TGFβ and salinomycin as above and after 72 hours, culture medium was collected and analyzed for collagen levels using a specific collagen I antibody and slot blot analysis.\nTo test these four compounds, human fibroblasts were treated with TGFβ in the absence or presence of 250 nM of either salinomycin, narasin, clioquinol or monensin for 72 hours. After treatment, cell lysates were harvested and analyzed for the presence of the myofibroblast markers, αSMA and calponin (FIG. 3B)."}, "human fibroblasts": {"system": "human fibroblasts", "assay": "BrdU incorporation assay (cell proliferation)", "details": "for basal fibroblast proliferation (BrdU incorporation): 250 nM, without TGFβ", "method": "Human fibroblasts were seeded on a 96-well plate at a density of 1×10^5 cells/well. Cells were treated in triplicate. Cell proliferation was determined using the bromodeoxyuridine (BrdU) assay following manufacturer's instructions. Briefly, cells were treated with a BrdU label at a 1:2000 dilution for 24 h after the initial 72 h treatment with TGFβ+/−drugs. BrdU incorporation was measured using the BrdU Cell Proliferation Assay kit (Calbiochem, San Diego, Calif.) at 450-540 nm using a Varioskan microplate reader.\nWhile salinomycin and other polyether ionophores blocked myofibroblast formation, it was next assessed whether these effects were a result of toxicity and/or due to a block of cell proliferation. Though the treatment doses are relatively low (efficacy in 100-250 nM range), a loss of cell viability could still be a possibility. To test this, human fibroblasts were treated with vehicle (DMSO), 50-250 nM salinomycin alone, TGFβ or TGFβ plus 250 nM salinomycin. As a positive control, fibroblasts were treated with the cytotoxic drug, puromycin. Treated cells were cultured in the presence of alamar blue reagent, which measures mitochondrial oxidation-reduction (REDOX) potential and serves as a quantitative viability sensor. After 72 hours of culture, alamar blue fluorescence was measured to assay cell viability (FIG. 4A). […] It was also tested whether salinomycin affects basal fibroblast proliferation. To address this, cells were treated with vehicle or 250 nm of either salinomycin or narasin for 24 hours in the presence of bromodeoxyuridine (BrdU) to measure cell proliferation ([…], first three bars). […] BrdU was also added to cells treated with TGFβ in the presence or absence of 250 nM salinomycin or narasin (FIG. 4B, last three bars). As expected, TGFβ induced human fibroblast proliferation. Remarkably, both salinomycin and narasin were able to beneficially block TGFβ induced proliferation by 4 to 5 fold, without affecting basal proliferation levels."}, "phospho-Smad2": {"system": "phospho-Smad2", "assay": "Western blot of phospho-Smad2/3 in TGFβ-treated human orbital fibroblasts", "method": "To further characterize the molecular mechanisms whereby salinomycin (and other polyether antibiotics) blocks TGFβ induced myofibroblast formation, activation kinetics were analyzed for some of the key mediators of TGFβ signaling (Weiss et al., “The TGFbeta superfamily signaling pathway,” Wiley Interdiscip. Rev. Dev. Biol. 2:47-63 (2013), which is hereby incorporated by reference in its entirety). Since salinomycin was first identified as a putative anti-scarring molecule by its ability to block TGFβ-induced Smad activity, the levels of phospho-Smad2 were analyzed by Western blot in cells treated with TGFβ or TGFβ plus salinomycin. […] The experiment was repeated, with samples being incubated for extended periods of time including 5, 24, 48 and 72 h hours (FIG. 5A, top panel)."}, "[2]": {"system": "primary human lung fibroblasts", "assay": "TGFβ-induced myofibroblast formation, αSMA Western blot and cell images, primary human lung fibroblasts", "details": "HCPT 50 nM or 500 nM, TGFβ, listed as SNC", "method": "Human lung fibroblasts were treated with various concentrations of 10-hydroxycamptothecin (HCPT) (50 nM or 500 nM) and induced to form scar-forming myofibroblasts by treating with TGFβ."}},
  "note": "“Also recorded” adds a separate entry of the source.",
  "data": [
    {"smiles": "CC[C@@H](C(=O)[C@@H](C)[C@@H](O)[C@H](C)[C@@H]1O[C@@H]([C@@H](CC)C(=O)O)CC[C@@H]1C)[C@H]1O[C@]2(C=C[C@@H](O)[C@]3(CC[C@@](C)([C@H]4CC[C@](O)(CC)[C@H](C)O4)O3)O2)[C@H](C)C[C@@H]1C", "note": "[salinomycin]", "values": [
      {"measurement": "reduction of αSMA expression over TGFβ treatment alone", "setting": "[1]; 50 nM, TGFβ 1 ng/ml, 72 hours", "value": 4, "unit": "fold"},
      {"measurement": "reduction of αSMA expression over TGFβ treatment alone", "setting": "[1]; 250 nM, TGFβ 1 ng/ml, 72 hours", "value": "approximately 16 fold"},
      {"measurement": "expression of αSMA and calponin", "setting": "[1]; 250 nM, 72 hours", "value": "lower than vehicle levels"},
      {"measurement": "expression of αSMA and calponin", "setting": "[1]; 250 nM, 72 hours, listed as Salinomycin", "value": "inhibited expression of αSMA and calponin"},
      {"measurement": "TGFβ-dependent expression of alpha smooth muscle actin, calponin and collagen", "setting": "[1]; 250 nM, primary human fibroblasts", "value": "blocked"},
      {"measurement": "expression of αSMA and calponin, dose dependence", "setting": "[1]; TGFβ 1 ng/ml, 72 hours", "value": "dose dependent manner"},
      {"measurement": "expression of αSMA and calponin, dose dependence", "setting": "[1]; TGFβ 1 ng/ml, 72 hours, listed as Salinomycin", "value": "dose-dependent decrease"},
      {"measurement": "expression of myofibroblast markers αSMA and calponin", "setting": "[1]; 100 and 200 nM, TGFβ 1 ng/ml, 72 hours, densitometry", "value": "below baseline levels"},
      {"measurement": "TGFβ induced proliferation (BrdU incorporation)", "setting": "human fibroblasts; 250 nM plus TGFβ", "value": "significantly blocked TGFβ induced proliferation"},
      {"measurement": "basal fibroblast proliferation (BrdU incorporation)", "setting": "human fibroblasts", "value": "Neither salinomycin nor narasin blocked basal fibroblast proliferation"},
      {"measurement": "basal fibroblast proliferation (BrdU incorporation)", "setting": "human fibroblasts; listed as Salinomycin", "value": "did not affect basal fibroblast proliferation"},
      {"measurement": "reduction of TGFβ induced phospho-Smad2/3 levels", "setting": "phospho-Smad2; 250 nM, 5 hours", "value": 2, "unit": "fold"},
      {"measurement": "reduction of phospho-Smad2 levels compared to TGFβ alone", "setting": "phospho-Smad2; 250 nM, 5 hours", "value": 80, "unit": "%"},
      {"measurement": "reduction of TGFβ induced phospho-Smad2/3 levels", "setting": "phospho-Smad2; 250 nM, 24 hours", "value": "8-10 fold"},
      {"measurement": "reduction of TGFβ induced phospho-Smad2/3 levels", "setting": "phospho-Smad2; 250 nM, 24 hours, listed as Salinomycin", "value": 5, "unit": "fold"},
      {"measurement": "phospho-Smad2 levels", "setting": "phospho-Smad2; early time points (30 sec-1 hour), TGFβ", "value": "did not affect phospho-Smad2 levels"},
      {"measurement": "formation of myofibroblasts (cell images)", "setting": "[2]", "value": "not in samples treated with HCPT or SNC; also recorded: not in samples with HCPT or salinomycin (SNC)"}
    ]}
  ]
}
